Source: a melting point compilation (Tetko et al.)

| melting point [°C] | SMILES |
| --- | --- |
| 199 to 201 | O=C(O)c1ccc(Cn2ccccc2=O)o1 |
| 154 to 156 | COc1cc(Br)ccc1C(=O)O |
| 145 to 155 | O=C(O)c1cccc(CN2CCCC2=O)c1 |
| 234 to 236 | CC(C)c1ccc(C(N)CC(=O)O)cc1 (stereo unspecified) |
| 180 to 182 | O=C(O)c1ccc(Cl)o1 |
| 208 to 210 | Cn1cc(-c2ccc(F)c(C(=O)O)c2)cn1 |
| 134 to 136 | O=C(O)c1ccccc1Oc1cccnc1 |
| 178 to 180 | O=C(O)CSc1cnc2ccccc2n1 |
| 169 to 171 | C=CCNc1ncc(C(=O)O)s1 |
| 164 to 166 | CCOC(=O)/C(C#N)=C\Nc1cc(F)ccc1F |
| 157 to 159 | CNc1ccnc(C(N)=O)c1 |
| 317 to 319 | NC(=O)c1ccc(C(=O)O)s1 |
| 101 to 103 | COC(=O)C(=O)CC(=O)c1ccc(OC)cc1OC |
| 279 to 281 | CNc1cnc(Cl)cc1C(=O)O |
| 193 to 195 | Cc1cc(C(=O)O)cc(S(=O)(=O)Cl)c1F |
| 68 to 70 | Clc1cnc2nc(Cl)oc2c1 |
| 132 to 134 | COC(=O)c1cnc(Cl)c(S(=O)(=O)N2CCOCC2)c1 |
| 217 to 219 | Brc1cnc2nc[nH]c2c1 |
| 219 to 221 | O=C(O)c1cnc2n1CCCC2 |
| 45 to 47 | Cc1ccc(C(=O)CBr)cc1[N+](=O)[O-] |

| melting point [°C] | SMILES |
| --- | --- |
| 51 to 53 | CC(OCc1ccccc1)C(=O)O (stereo unspecified) |
| 114 to 116 | COC(=O)c1snc(-c2ccccc2)c1N |
| 163 to 165 | NNC(=O)Nc1ccc(Br)cc1Cl |
| 173 to 175 | Cc1cnc(Cl)cc1O |
| 150 to 154 | Cc1noc(N)c1C(=O)O |
| 184 to 186 | Cc1cc(Cl)nc(-c2ccc([N+](=O)[O-])cc2)n1 |
| 127 to 129 | CNC(=O)c1ccnc(F)c1 |
| 179 to 181 | CC(C)NC(=O)c1cn[nH]c1N |
| 203 to 205 | Cc1cc(C(=O)O)ccc1N1C(=O)C=CC1=O |
| 127 to 129 | O=C(O)c1ccc(OC2CCC2)cc1Cl |
| 156 to 158 | O=C(O)C1CCCCN1c1ncccn1 (stereo unspecified) |
| 131 to 133 | O=C(O)Cc1ccc(S(=O)(=O)Cl)cc1 |
| 159 to 161 | CC(=O)c1ccc(C(=O)O)c(F)c1 |
| 178 to 180 | Cn1cncc1C(N)=O |
| 154 to 156 | CC(=O)NCc1ccc(-c2nc(N)sc2C)s1 |
| 125 to 127 | O=C(O)c1ccccc1SCCO |
| 169 to 171 | O=C(O)c1sccc1C1CC1 |
| 69 to 71 | CNc1nc(C)cs1 |
| 206 to 208 | Nc1cnn(CC(=O)O)c1 |

More lines, now with the values behind:

| SMILES | melting point [°C] |
| --- | --- |
| Cc1nn(C)c(Br)c1C#N | 109 to 111 |
| O=C(O)C1CCN(C(=O)CCOc2ccccc2)CC1 | 127 to 129 |
| CCCn1c(S)nc2cc(S(N)(=O)=O)ccc21 | 190 to 194 |
| CC(C)(C)OC(=O)NC1C2CCC(C2)C1C(=O)O (stereo unspecified) | 140 to 142 |
| Nc1ccccc1S(=O)(=O)C(F)F | 65 to 67 |
| NC(=O)c1c(C2CCCCC2)csc1N | 164 to 166 |
| O=c1[nH]nc(-c2ccccc2)cc1C(F)(F)F | 184 to 186 |
| C=CCc1cc(OCC)ccc1O | 135 to 137 |
| Cc1ccccc1-n1c(C)cc(C=O)c1C | 71 to 73 |
| Nc1nc(-c2ccc(F)cc2)ns1 | 154 to 156 |
| Nc1ccc(-n2ccnn2)cc1 | 137 to 139 |
| CCOc1ccccc1-c1nnc(S)n1N | 153 to 155 |
| COC(=O)c1cn(CCCC#N)nn1 | 75 to 77 |
| ClCc1coc(-c2ccccc2Cl)n1 | 54 to 56 |
| Cc1c(C(=O)NN)oc2ccccc12 | 139 to 141 |
| O=S1(=O)C=C(Nc2ccccc2)CC1 | 153 to 155 |
| Cc1ccc(-c2nnc(O)c3ccccc23)cc1 | 250 to 255 |
| NNC(=O)COc1ccc(OCc2ccccc2)cc1 | 142 to 144 |
| COCCn1c(C)cc(C=O)c1C | 44 to 46 |
| Cc1cccc2c(CC#N)c[nH]c12 | 109 to 111 |
| CCOC(=O)C1=C(C)NC(=O)NC1CCl (stereo unspecified) | 169 to 171 |
| COc1cc(NS(=O)(=O)c2ccc(N)cc2OC)cc(OC)c1 | 177 to 179 |
| O=C1CC2(CCCCC2)C(=O)O1 | 54 to 58 |

| SMILES | melting point [°C] |
| --- | --- |
| COc1ccc(C(C)=O)cc1Cn1cccn1 | 80 to 82 |
| NC(=O)Cc1ccc(OCC(=O)O)cc1 | 171 to 173 |
| OCC1NCCc2ccccc21 (stereo unspecified) | 71 to 73 |
| Cc1sc([N+](=O)[O-])cc1[N+](=O)[O-] | 81 to 83 |
| Nc1nc(-c2cc(Br)cs2)cs1 | 149 to 151 |
| Cc1csc(CC(N)=S)n1 | 126 to 128 |
| COc1cc(C(=O)Oc2ccc(C=O)cc2)cc(OC)c1OC | 113 to 115 |
| O=C(O)C(=Cc1cccnc1)NC(=O)c1ccccc1 | 189 to 191 |
| CCn1cc(N2C(=O)C=CC2=O)cn1 | 92 to 94 |
| Nc1cc(-c2ccco2)nn1-c1ccc(Cl)cc1 | 129 to 131 |
| Cc1cn2nc(N)c3ccccc3c2n1 | 216 to 218 |
| CS(=O)(=O)OCCn1cc(C#N)cn1 | 64 to 66 |
| c1ccc(OCCc2nc3ccccc3[nH]2)cc1 | 136 to 138 |
| Cn1cnnc1C1CCNCC1 | 181 to 183 |
| NNS(=O)(=O)c1ccc(OC(F)(F)F)cc1 | 105 to 107 |
| NCc1cc(Br)c2c(c1)OCO2 | 49 to 51 |
| C#CCNC(=O)CC#N | 108 to 110 |
| CC(C)(C)OC(=O)NCCc1nc(N)no1 | 116 to 118 |
| Nc1nc(-c2cccnc2)cs1 | 189 to 193 |
| NC(=S)COc1ccccc1-c1ccccc1 | 177 to 179 |
| COc1ccc(S(=O)(=O)CC(C)C(=O)O)cc1 (stereo unspecified) | 116 to 118 |
| COc1ccccc1NC(=O)C(Br)C(C)C (stereo unspecified) | 107 to 109 |
| Cc1cc(C)n2nc(CCCO)nc2n1 | 89 to 91 |

| SMILES | melting point [°C] |
| --- | --- |
| O=C(CCl)Nc1ccc(N2CCc3ccccc32)cc1 | 167 to 169 |
| C=CCNS(=O)(=O)c1ccccc1F | 100 to 102 |
| Brc1c[nH]c2nc(C3CCCO3)nc-2c1 (stereo unspecified) | 219 to 221 |
| COc1ccc(Cn2[nH]ccc2=N)c(OC)c1 | 76 to 78 |
| Cc1nnc(S)n1C1CCCCC1 | 164 to 166 |
| NCc1ccc(C(N)=O)cc1 | 141 to 143 |
| Nc1nc(CN2CCN(Cc3ccccc3)CC2)cs1 | 110 to 112 |
| Fc1ccccc1-c1nc(CCl)cs1 | 64 to 66 |
| Fc1ccc2nc(NCc3ccccc3)sc2c1 | 182 to 184 |
| Nc1ccc2nc(NC(=O)CN3CCOCC3)sc2c1 | 228 to 230 |
| Nc1nnc(-c2ccc(F)cc2)o1 | 246 to 248 |
| OCc1cnn(Cc2ccccc2)c1 | 55 to 57 |
| CCC(c1ccccc1)c1nnc(N)o1 (stereo unspecified) | 197 to 199 |
| O=C(c1c[nH]c2ccccc12)C(Cl)c1ccccc1 (stereo unspecified) | 124 to 126 |
| Nc1cc(C2CCCCC2)no1 | 127 to 129 |
| CC(C)(C)n1cc(C(=O)O)c(Br)n1 | 163 to 165 |
| CCNc1ncccc1N | 108 to 110 |
| CCCc1ccc(N2CC(C(=O)O)CC2=O)cc1 (stereo unspecified) | 136 to 138 |
| NS(=O)(=O)c1cccc2cccnc12 | 183 to 185 |
| O=C1CCC(C(=O)O)CN1 (stereo unspecified) | 174 to 176 |
| O=C(O)Cc1coc2cc3c(cc12)CCC3 | 151 to 153 |
